These are literature values, as cited in patent US20190175504A1, “Carbohydrate-Derivatized Liposomes for Targeting Cellular Carbohydrate Recognition Domains of Ctl/Ctld Lectins, and Intracellular Delivery of Therapeutically Active Compounds” (RODOS BioTarget GmbH, priority 2004, published 2019).

In data set [1] the test system is bile duct-ligated mouse.
Data set [2] has as its system HCV-positive patients.
Data set [3] concerns mouse model of liver damage.

On to `C[C@H](NC(=O)C(=O)Nc1ccccc1C(C)(C)C)C(=O)N[C@@H](CC(=O)O)C(=O)COc1c(F)c(F)cc(F)c1F` [IDN-6556], for which, in data set [1], the antifibrotic effect result is “proven beneficial as an antifibrotic agent”. Besides, the “pathologic values of liver parameters (e.g., ALT)” value in data set [2] is “significantly reduces”.

With `Cc1ccc(C(=O)Nc2ccc(S(=O)(=O)O)c3cc(S(=O)(=O)O)cc(S(=O)(=O)O)c23)cc1NC(=O)c1cccc(NC(=O)Nc2cccc(C(=O)Nc3cc(C(=O)Nc4ccc(S(=O)(=O)O)c5cc(S(=O)(=O)O)cc(S(=O)(=O)O)c45)ccc3C)c2)c1` [suramin], the “apoptosis in liver damage” value in data set [3] was “inhibit apoptosis”.
